{"source": "patent US20170315126A1", "about": "“METHOD FOR SCREENING COMPOUND SPECIFICALLY SUPPRESSING FORMATION OF CAVEOLAE OF CANCER CELLS, SCREENING KIT, VECTOR AND TRANSFORMANT TO BE USED IN KIT, AND METHOD FOR SELECTING PATIENT FOR WHOM MOLECULARLY TARGETED DRUG IS INDICATED” (NATIONAL UNIVERSITY CORPORATION NAGOYA INSTITUTE OF …, priority 2014, published 2017)", "assay_type_in_all_cases": "cell-based, human", "key": {"[1]": {"test_system": "CAV1", "experiment": "Western blotting of CAV1 expression after siRNA transfection in pulmonary adenocarcinoma cell lines", "method": "(§1) Western blotting analysis and IP-WB analysis were conducted by the standard methods using an Immobilon-P filter (manufactured by Millipore Corp.) and an enhanced chemiluminescence system (manufactured by GE Healthcare Inc.). pCMVpuro-Cavin-1-WT was coexpressed with various ROR1 expression constructs such as the wild type (WT), TKΔ473-564 (TKΔ1), TK564-655 (TKΔ2), TKΔ655-746 (TKΔ3), TKΔ473-655 (TKΔ1+×2), TKΔ564-746 (TKΔ2+Δ3), and TKΔ473-746 (TKA1+Δ2+A3) to identify the binding site of ROR1 and Cavin-1. pCMVpuro-CAV1-WT was coexpressed with ROR1 expression constructs such as the wild type (WT), TKΔ473-564 (TKΔ1), TKΔ564-655 (TKΔ2), TKΔ655-746 (TKΔ3), ST1Δ748-782 (ΔST1), PΔ784-851 (ΔP), and ST2Δ853 to 876 (ΔST2) to identify the binding site of ROR1 and CAV1. For these, the cells were recovered 24 hours after transfection by Fugene6 (Promega) using COS-7 cells, and IP-WB analysis was conducted.\n(§2) Transfection of the siRNA (20 nM each) was conducted in accordance with the manufacturer's instruction manual using lipofectamine RNAiMAX (manufactured by Invitrogen). […] Cells were also recovered 120 hours after transfection for analysis by colorimetry to measure cell proliferation."}, "[2]": {"test_system": "CAV1", "experiment": "Western blotting of CAV1 after siROR1 treatment in cells expressing ROR1 wild type or mutants with silent mutation", "settings": "three days", "method": "In vitro mutagenesis was conducted using KOD-plus-DNA polymerase (Toyobo), and pCMVpuro-ROR1-WTm (siROR1) and pCMVpuro-ROR1-KDm (siROR1) including silent mutations for siROR1 were prepared. Following primer of not involving amino acid substitution was used for production.\nWild type ROR1 (ROR1-WT), wild type ROR1 with an added silent mutation for siROR1 (ROR1-WTm), or kinase activity-deficient ROR1 with a silent mutation for siROR1 added (ROR1-KDm) were transfected into NCI-H1975 cells. Selection by puromycin (1.5 μg/mL) was performed after 24 hours, and the single clones were collected, and stable clones that expressed the respective ROR1 (constitutive ROR1-expressing cell lines) were prepared. These stable clones were then treated by siControl or siROR1, and the cells were recovered after three days and Western blotting analysis was conducted.\nIn vitro mutagenesis was conducted using KOD-plus-DNA polymerase (Toyobo), and pCMVpuro-ROR1-WTm (siROR1) and pCMVpuro-ROR1-TKA2+TKA3m (siROR1) including silent mutations for siROR1 were prepared. Following primer of not involving amino acid substitution was used for production.\nWild type ROR1 (ROR1-WT), wild type ROR1 with an added silent mutation for siROR1 (ROR1-WTm), or cavin-1 binding region-deficient ROR1 with an added silent mutation for siROR1 (ROR1-TKA2+TKA3m) were transfected into PC-9 cells. Selection by puromycin (1.0 μg/mL) was performed after 24 hours, and the cells were recovered as bulk clones and reseeded in 6-well plates. The cells were then treated by siControl or siROR1, recovered after three days, and Western blotting analysis was conducted.\nIn vitro mutagenesis was conducted using KOD-plus-DNA polymerase (Toyobo), and pCMVpuro-ROR1-WTm (siROR1) and pCMVpuro-ROR1-AS/T2m (siROR1) including silent mutations for siROR1 were prepared. Following primer of not involving amino acid substitution was used for production.\nWild type ROR1 (ROR1-WT), wild type ROR1 with an added silent mutation for siROR1 (ROR1-WTm), or CAV1 binding region-deficient ROR1 with an added silent mutation for siROR1 (ROR1-ΔS/T2m) were transfected into PC-9 cells. Selection by puromycin (1.0 μg/mL) was performed after 24 hours, and the cells were recovered as bulk clones and reseeded in 6-well plates. The cells were then treated by siControl or siROR1, recovered after three days, and Western blotting analysis was conducted."}, "[3]": {"test_system": "ROR1", "experiment": "Western blotting of changes over time in ROR1 expression after siROR1 transfection", "settings": "NCI-H1975; 24 hours after transfection", "method": "as §1, §2"}, "[4]": {"test_system": "caveolae of NCI-H1975 cells", "experiment": "Electron microscope analysis of caveolae by rapid freezing/freeze-fracture replica labeling", "settings": "72 hours after transfection, n=18 regions", "method": "20 μm thick gold foil was placed in a culture dish, and NCI-H1975 cells, which are a pulmonary adenocarcinoma cell line, were cultured on top. Transfection of siControl or siROR1 was conducted. Rapid freezing was conducted using a high-pressure freezing machine (Leica Inc.) 72 hours after transfection. Freeze-fracture replicas were prepared using a BAF400 apparatus (Baltec Co.), and labeled by mouse anti-CAV2 antibody (BD Transduction Co.) after treatment by SDS. A second antibody reaction was then conducted using 10 nm gold colloid-conjugated goat anti-mouse IgG antibody (British Biocell International Co.), and the cells were examined by a JEM-1011 electron microscope. For caveolae distribution density measurement, randomly selected regions under the electron microscope (18 random cell membrane regions of 17-50 μm) were measured, and the cell membrane region of each electron micrograph was measured using ImageJ."}, "[5]": {"test_system": "CAV1 and Cavin-1", "experiment": "IP-WB analysis of binding of endogenous CAV1 and Cavin-1 under ROR1 silencing", "settings": "NCI-H1975 cell extract 24 hours after transfection", "method": "as §1\nIn addition, IP-WB analysis was conducted after suspending the cells in lysis buffer containing octyl glucoside (10 mM Tris-HCl (pH 8.0), 0.15 M NaCl, 5 mM EDTA, 1% Triton X-100, 60 mM octyl glucoside) using NCI-H1975, NCI-H358, and SK-LU-1 cell lines, which are pulmonary adenocarcinoma cell lines, to confirm the binding of ROR1 and Cavin-1, ROR1 and CAV1, or Cavin-1 and IGF-IR."}}}
{"substance": "siROR1: RNA oligomer for RNAi against human ROR1, 5′-CAGCAAUGGAUGGAAUUUCAA-3′ (SEQ ID No: 13) (listed as RNA, further chemistry not given here)", "values": [{"measurement": "CAV1 expression (Western blot)", "setting": "[1]; NCI-H441, NCI-H358 and PC-9, siRNA 20 nM, 72 hours after transfection", "result": "downregulation of CAV1 was found"}, {"measurement": "CAV1 expression (Western blot)", "setting": "[1]; NCI-H1975, after 48 hours", "result": "downregulation of CAV1 was seen"}, {"measurement": "CAV1 expression (Western blot)", "setting": "[2]; NCI-H1975 stable clones expressing ROR1-KDm (kinase activity-deficient, silent mutation)", "result": "downregulation of CAV1 was not seen"}, {"measurement": "CAV1 expression (Western blot)", "setting": "[2]; NCI-H1975 stable clones expressing ROR1-WT", "result": "downregulation of CAV1"}, {"measurement": "CAV1 expression (Western blot)", "setting": "[2]; NCI-H1975 stable clones expressing ROR1-WTm (silent mutation against siROR1)", "result": "downregulation of CAV1 was not seen"}, {"measurement": "CAV1 expression (Western blot)", "setting": "[2]; PC-9 transfected with ROR1-AS/T2m (CAV1 binding region deleted, silent mutation)", "result": "expression of CAV1 was lowered"}, {"measurement": "CAV1 expression (Western blot)", "setting": "[2]; PC-9 transfected with ROR1-TKA2+TKA3m (cavin-1 binding region deleted, silent mutation)", "result": "expression of CAV1 was lowered"}, {"measurement": "ROR1 expression (Western blot)", "setting": "[3]", "result": "lowered the expression of ROR1"}, {"measurement": "number of normal caveolae in random regions on the cell membrane", "setting": "[4]", "result": "decreases significantly"}, {"measurement": "binding of endogenous CAV1 and Cavin-1 (IP-WB)", "setting": "[5]", "result": "decreases the binding"}]}
